Laboratory results as given in patent US11242337B2, “Compounds useful for treating gastrointestinal tract disorders” (Ardelyx, Inc., priority 2017, dated 2022).
Structures can show the parent of a compound that is named as a salt.

Experiments:
NHE3 [1] = biological target: T1, NHE3 (Homo sapiens, UniProt P48764); assay: Cell-based assay of NHE-3 activity (pre-incubation inhibition), human; conditions: human Preincubation; for pIC50: 0-30 μM test compound
T1 construct: expressed in transfected cells
T1 sequence (P48764 26-834): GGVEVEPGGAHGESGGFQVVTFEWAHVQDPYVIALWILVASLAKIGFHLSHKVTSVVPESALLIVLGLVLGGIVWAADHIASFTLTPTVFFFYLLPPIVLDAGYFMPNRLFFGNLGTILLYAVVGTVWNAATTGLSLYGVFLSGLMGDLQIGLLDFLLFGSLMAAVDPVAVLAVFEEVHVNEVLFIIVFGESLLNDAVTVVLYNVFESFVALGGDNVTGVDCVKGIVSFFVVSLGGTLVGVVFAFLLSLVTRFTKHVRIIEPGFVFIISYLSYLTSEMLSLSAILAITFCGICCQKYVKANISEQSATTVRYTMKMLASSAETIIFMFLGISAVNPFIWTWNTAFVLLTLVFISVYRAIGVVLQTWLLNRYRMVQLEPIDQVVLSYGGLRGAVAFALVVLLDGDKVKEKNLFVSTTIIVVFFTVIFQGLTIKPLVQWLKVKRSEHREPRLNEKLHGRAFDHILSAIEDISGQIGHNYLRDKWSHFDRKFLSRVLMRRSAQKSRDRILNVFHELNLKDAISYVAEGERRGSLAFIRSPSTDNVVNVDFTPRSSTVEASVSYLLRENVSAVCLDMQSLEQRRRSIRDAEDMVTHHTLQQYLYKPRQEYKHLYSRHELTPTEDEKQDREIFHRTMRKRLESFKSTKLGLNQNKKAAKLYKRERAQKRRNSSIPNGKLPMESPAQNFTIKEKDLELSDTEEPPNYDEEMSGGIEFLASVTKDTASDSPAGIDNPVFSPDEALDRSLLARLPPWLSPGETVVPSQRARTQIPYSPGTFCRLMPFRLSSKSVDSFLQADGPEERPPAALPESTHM
T1 sequence (Q99653 2-195 partner limits assumed): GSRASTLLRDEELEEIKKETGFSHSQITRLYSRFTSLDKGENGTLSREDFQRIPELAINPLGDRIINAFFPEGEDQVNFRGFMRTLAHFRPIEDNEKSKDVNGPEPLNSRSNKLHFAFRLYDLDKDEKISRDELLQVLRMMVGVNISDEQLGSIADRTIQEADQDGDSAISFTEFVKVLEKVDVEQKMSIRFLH
Procedure: Rat and human NHE-3-mediated Na^+-dependent H^+ antiport was measured using a modification of the pH sensitive dye method originally reported by Paradiso (Proc. Natl. Acad. Sci. USA. (1984) 81(23): 7436-7440). PS120 fibroblasts stably expressing human NHE3 and NHERF2 were obtained from Mark Donowitz (Baltimore, Md.). Opossum kidney (OK) cells were obtained from the ATCC and propagated per their instructions. The rat NHE-3 gene (GenBank M85300) was introduced into OK cells via electroporation, and cells were seeded into 96 well plates and grown overnight. Medium was aspirated from the wells then incubated for 30 min at 37° C. with NH4Cl-HEPES buffer (20 mM NH4Cl, 80 mM NaCl, 50 mM HEPES, 5 mM KCl, 2 mM CaCl2, 1 mM MgCl2, pH 7.4) containing 5 μM BCECF-AM. Cells were washed once with Ammonium free, Na^+-free HEPES (100 mM choline, 50 mM HEPES, 10 mM glucose, 5 mM KCl, 2 mM CaCl2, 1 mM MgCl2, pH 7.4) and incubated in the same buffer for 10 minutes at room temperature to lower intracellular pH with 0-30 μM test compound. […] Changes in intracellular pH were monitored using a FLIPR Tetra® (Molecular Devices, Sunnyvale, Calif.) by excitation at λex 439 to 505 nm, and measuring BCECF fluorescence at λem 538 nm. The initial rate of the fluorescence ratio change was used as a measure of NHE-mediated Na^+/H^+ activity, and reported as the change in fluorescence ratio per minute.

NHE3 [2] = biological target: T1, NHE3; assay: Cell-based assay of NHE-3 activity (persistent inhibition), human; conditions: human Persistence, 60 min incubation then washout
Procedure: The ability of compounds to inhibit human and rat NHE-3-mediated Na^+ dependent H^+ antiport after application and washout was measured using a modification of the pH sensitive dye method described above. PS120 fibroblasts stably expressing human NHE3 and NHERF2 were obtained from Mark Donowitz (Baltimore, Md.). Opossum kidney (OK) cells were obtained from the ATCC and propagated per their instructions. The rat NHE-3 gene was introduced into OK cells via electroporation, and cells were seeded into 96 well plates and grown overnight. Medium was aspirated from the wells, cells were washed once with NaCl-HEPES buffer (100 mM NaCl, 50 mM HEPES, 10 mM glucose, 5 mM KCl, 2 mM CaCl2, 1 mM MgCl2, pH 7.4), then overlayed with NaCl-HEPES buffer containing 0-30 μM test compound. After a 60 min incubation at room temperature, the test drug containing buffer was aspirated from the cells. Following aspiration, cells were washed once with NaCl-HEPES buffer without drug, then incubated for 30 min at 37° C. with NH4Cl-HEPES buffer (20 mM NH4Cl, 80 mM NaCl, 50 mM HEPES, 5 mM KCl, 2 mM CaCl2, 1 mM MgCl2, pH 7.4) containing 5 μM BCECF-AM. Cells were washed once with Ammonium free, Na^+-free HEPES (100 mM choline, 50 mM HEPES, 10 mM glucose, 5 mM KCl, 2 mM CaCl2, 1 mM MgCl2, pH 7.4) and incubated in the same buffer for 10 minutes at room temperature to lower intracellular pH. NHE-3-mediated recovery of neutral intracellular pH was initiated (10 min after compound washout) by addition of Na-HEPES buffer. […] Changes in intracellular pH were monitored using a FLIPR Tetra® (Molecular Devices, Sunnyvale, Calif.) by excitation at λex 439 to 505 nm, and measuring BCECF fluorescence at λem 538 nm. The initial rate of the fluorescence ratio change was used as a measure of NHE-mediated Na^+/H^+ activity, and reported as the change in fluorescence ratio per minute.

% inhibition (NHE3 [1]) | pIC50 (NHE3 [1]) | % inhibition (NHE3 [2]) | pIC50 (NHE3 [2]) | Compound
B (40-70%) | C (NHE3 pIC50 > 7) | B (40-70%) | C (NHE3 pIC50 > 7) | Cc1cc(S(=O)(=O)NCCOCCOCCNC(=O)NCCCCNC(=O)NCCOCCOCCNS(=O)(=O)c2ccc(O[C@H]3c4cc(Cl)cc(C#N)c4C[C@@H]3N(C)C)c(C)c2)ccc1O[C@H]1c2cc(Cl)cc(C#N)c2C[C@@H]1N(C)C [Example 18, 3-[2-(2-[2-[(4-[[(1S,2S)-6-Chloro-4-cyano-2-(dimethylamino)-2,3-dihydro-1H-inden-1-yl]oxy]-3-methylbenzene)sulfonamido]ethoxy]ethoxy)ethyl]-1-[4-([[2-(2-[2-[(4-[[(1S,2S)-6-chloro-4-cyano-2-(dimethylamino)-2,3-dihydro-1H-inden-1-yl]oxy]-3-methylbenzene)sulfonamido]ethoxy]ethoxy)ethyl]carbamoyl]amino)butyl]urea; bis(trifluoroacetic acid)]
A (NHE3 < 40%) | A (NHE3 pIC50 < 6) | A (NHE3 < 40%) | A (NHE3 pIC50 < 6) | Cc1cc(S(=O)(=O)NCCOCCOCCNC(=O)NCCCCNC(=O)NCCOCCOCCNS(=O)(=O)c2ccc(O[C@H]3c4cc(Cl)cc(C(F)(F)F)c4C[C@@H]3N(C)C)c(C)c2)ccc1O[C@H]1c2cc(Cl)cc(C(F)(F)F)c2C[C@@H]1N(C)C [Example 19, 3-[2-(2-[2-[(4-[[(1S,2S)-6-Chloro-2-(dimethylamino)-4-(trifluoromethyl)-2,3-dihydro-1H-inden-1-yl]oxy]-3-methylbenzene)sulfonamido]ethoxy]ethoxy)ethyl]-1-[4-([[2-(2-[2-[(4-[[(1S,2S)-6-chloro-2-(dimethylamino)-4-(trifluoromethyl)-2,3-dihydro-1H-inden-1-yl]oxy]-3-methylbenzene)sulfonamido]ethoxy]ethoxy)ethyl]carbamoyl]amino)butyl]urea]
A (NHE3 < 40%) | A (NHE3 pIC50 < 6) | A (NHE3 < 40%) | A (NHE3 pIC50 < 6) | Cc1cc(S(=O)(=O)NCCOCCOCCNC(=O)NCCCCNC(=O)NCCOCCOCCNS(=O)(=O)c2ccc(O[C@H]3c4cc(Cl)cc(OC(F)(F)F)c4C[C@@H]3N(C)C)c(C)c2)ccc1O[C@H]1c2cc(Cl)cc(OC(F)(F)F)c2C[C@@H]1N(C)C [Example 20, 1-[2-(2-[2-[(4-[[(1S,2S)-6-Chloro-2-(dimethylamino)-4-(trifluoromethoxy)-2,3-dihydro-1H-inden-1-yl]oxy]-3-methylbenzene)sulfonamido]ethoxy]ethoxy)ethyl]-3-[4-([[2-(2-[2-[(4-[[(1S,2S)-6-chloro-2-(dimethylamino)-4-(trifluoromethoxy)-2,3-dihydro-1H-inden-1-yl]oxy]-3-methylbenzene)sulfonamido]ethoxy]ethoxy)ethyl]carbamoyl]amino)butyl]urea]
A (NHE3 < 40%) | C (NHE3 pIC50 > 7) | C (>70%) | A (NHE3 pIC50 < 6) | COc1cc(Cl)cc2c1C[C@H](N(C)C)[C@H]2Oc1ccc(S(=O)(=O)NCCOCCOCCNC(=O)NCCCCNC(=O)NCCOCCOCCNS(=O)(=O)c2ccc(O[C@H]3c4cc(Cl)cc(OC)c4C[C@@H]3N(C)C)c(C)c2)cc1C [Example 21, 3-[2-(2-[2-[(4-[[(1S,2S)-6-Chloro-2-(dimethylamino)-4-methoxy-2,3-dihydro-1H-inden-1-yl]oxy]-3-methylbenzene)sulfonamido]ethoxy]ethoxy)ethyl]-1-[4-([[2-(2-[2-[(4-[[(1S,2S)-6-chloro-2-(dimethylamino)-4-methoxy-2,3-dihydro-1H-inden-1-yl]oxy]-3-methylbenzene)sulfonamido]ethoxy]ethoxy)ethyl]carbamoyl]amino)butyl]urea; bis(trifluoroacetic acid)]
C (>70%) | C (NHE3 pIC50 > 7) | C (>70%) | C (NHE3 pIC50 > 7) | Cc1cc(S(=O)(=O)NCCOCCOCCNC(=O)NCCCCNC(=O)NCCOCCOCCNS(=O)(=O)c2ccc(O[C@H]3c4cc(Cl)cc(Cl)c4C[C@@H]3N(C)C)c(C)c2)ccc1O[C@H]1c2cc(Cl)cc(Cl)c2C[C@@H]1N(C)C [Example 22, 3-[2-(2-[2-[(4-[[(1S,2S)-4,6-Dichloro-2-(dimethylamino)-2,3-dihydro-1H-inden-1-yl]oxy]-3-methylbenzene)sulfonamido]ethoxy]ethoxy)ethyl]-1-[4-([[2-(2-[2-[(4-[[(1S,2S)-4,6-dichloro-2-(dimethylamino)-2,3-dihydro-1H-inden-1-yl]oxy]-3-methylbenzene)sulfonamido]ethoxy]ethoxy)ethyl]carbamoyl]amino)butyl]urea dihydrochloride]
C (>70%) |  | C (>70%) |  | CN(C)[C@@H]1CCCN([C@H]2Cc3c(Cl)cc(Cl)cc3[C@@H]2Oc2ccc(S(=O)(=O)NCCOCCOCCNC(=O)NCCCCNC(=O)NCCOCCOCCNS(=O)(=O)c3ccc(O[C@H]4c5cc(Cl)cc(Cl)c5C[C@@H]4N4CCC[C@@H](N(C)C)C4)cc3)cc2)C1 [Example 25]
B (40-70%) | C (NHE3 pIC50 > 7) | B (40-70%) | C (NHE3 pIC50 > 7) | CN(C)[C@H]1Cc2c(C#N)cc(Cl)cc2[C@@H]1Oc1ccc(S(=O)(=O)NCCOCCOCCNC(=O)NCCCCNC(=O)NCCOCCOCCNS(=O)(=O)c2ccc(O[C@H]3c4cc(Cl)cc(C#N)c4C[C@@H]3N(C)C)c(F)c2)cc1F [Example 37, 3-[2-(2-[2-[(4-[[(1S,2S)-6-Chloro-4-cyano-2-(dimethylamino)-2,3-dihydro-1H-inden-1-yl]oxy]-3-fluorobenzene)sulfonamido]ethoxy]ethoxy)ethyl]-1-[4-([[2-(2-[2-[(4-[[(1S,2S)-6-chloro-4-cyano-2-(dimethylamino)-2,3-dihydro-1H-inden-1-yl]oxy]-3-fluorobenzene)sulfonamido]ethoxy]ethoxy)ethyl]carbamoyl]amino)butyl]urea]
